Source: patent publication US6291470A, “Indole derivatives process for producing the same and medicinal uses of the same” (Toray Industries, Inc., priority 1992, dated 2001)

Assays:
[1] = tested on: delayed type hypersensitivity; test: Mouse Delayed Type Hypersensitivity Reaction Suppression Test-2 (donor spleen cells, subcutaneous administration); assay type: in vivo; conditions: C57BL/6 spleen cells; subcutaneous everyday from day of sensitization, totally 8 days; BALB/c
Text: (§1) BALB/c mice (male, 7 weeks old) were used, and each group consisted of 4-5 mice. Spleen cells (1×10^7 ) obtained from a donor mouse (C57BL/6) was subcutaneously administered to sensitize the mice. On Day 7 from the sensitization, the spleen cells (5×10^6) of the donor were subcutaneously administered on the right hing leg and spleen cells (5×10^6) obtained from a mouse of the same line as the recipient mice were subcutaneously administered on the left footpad. Twenty four hours later, the thicknesses of the right and left footpads were measured with a dial thickness gage, and the difference in thicknesses of the right and left footpads before the induction of the reaction and 24 hours after the induction of the reaction was employed as the index of the degree of the reaction.
The test compound was dissolved in 10% DMSO-water and was subcutaneously administered everyday from the day of sensitization to the day of induction of the reaction, totally 8 days. In the control group, 10% DMSO-water alone was administered in the same manner. The volume of administration was 10 ml/kg in both study groups and in the control group. Delayed Type Hypersensitivity Reaction=(thickness of right foodpad after induction-thickness of right footpad before induction)-(thickness of […] before induction) [formula]
wherein C means delayed type hypersensitivity reaction of the group to which the test compound was administered and D means the delayed type hypersensitivity reaction of the group to which vehicle was administered.

[2] = tested on: delayed type hypersensitivity; test: Mouse Delayed Type Hypersensitivity Reaction Suppression Test-1 (SRBC); assay type: in vivo; conditions: SRBC sensitization; subcutaneous, everyday from 3 days before sensitization, totally 8 days; BALB/c
Experimental: BALB/c mice (male, 7 weeks old) were used. The mice were classified into groups depending on the body weight, each group consisting of 7-8 mice. Each of the mice was sensitized by subcutaneously administering […] of SRBC (8×10^8 in saline) on the heel of the left hing leg. On day 4 from the sensitization, 25 μl of SRBC (8×10^9 in saline) was subcutaneously administered on the right footpad so as to induce delayed type hypersensitivity. The difference in the thicknesses of the right footpad before the induction of reaction and 24 hours after the induction of the reaction was employed as an index of the degree of the reaction.
The test compound was dissolved in 10% DMSO-water and was subcutaneously administered everyday from 3 days before the sensitization to the day of induction of the reaction, totally 8 days. In the control group, 10% DMSO-water alone was administered in the same manner. The volume of administration was 5 ml/kg in both study groups and in the control group.
The % suppression of the delayed type hypersensitivity reaction was calculated according to the following equation: [formula]
wherein A means the difference in the thickness of the right hind leg before and after the reaction in control group, and B means the difference in the thickness of the right hind leg before and after the reaction in the group to which the test compound was administered.

δ-opioid receptor = target: T1, δ-opioid receptor (Mus musculus, UniProt P32300); test: δ-opioid antagonist activity against DPDPE in mouse vas deferens (MVD); conditions: for Ratio of IC50 Values: DPDPE IC50 with/without 100 nM test compound; for Ratio of IC50 Values / Kb: 20 min; for Kb: against DPDPE, test compound 100 nM, read-out: Ke
T1 construct: from tissue; host or cells: vas deferens of male ddy mice
T1 sequence (P32300 whole entry): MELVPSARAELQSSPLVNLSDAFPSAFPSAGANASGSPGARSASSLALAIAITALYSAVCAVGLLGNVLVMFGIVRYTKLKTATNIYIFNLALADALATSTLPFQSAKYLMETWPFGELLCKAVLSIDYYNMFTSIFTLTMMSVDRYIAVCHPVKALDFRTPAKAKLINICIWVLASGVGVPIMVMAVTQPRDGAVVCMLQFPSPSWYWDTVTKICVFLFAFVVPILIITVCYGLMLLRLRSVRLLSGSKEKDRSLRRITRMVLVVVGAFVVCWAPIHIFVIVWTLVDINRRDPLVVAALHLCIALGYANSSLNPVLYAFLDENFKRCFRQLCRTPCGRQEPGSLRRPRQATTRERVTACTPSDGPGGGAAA
Experimental: Using mouse vas deferens (MVD), the antagonist activity against DPDPE which is a δ-opioid agonist was checked.
In this experiment, ddy male mice were used. In a Magnus' tube which is filled with Krebes-Henseleit solution (NaCl […]; KCl 4.7 mM; CaCl2 2.5 mM; KH2 PO4 1.1 mM; NaHCO3 25 mM; glucose 11 mM) kept at 37° C., and into which an atmosphere consisting of 5% carbon dioxide and 95% oxygen was flown, vas deferens taken from the animals was suspended. Electric stimulation was applied through ring-shaped platinum electrodes mounted on the upper and lower portions of the tube at a frequency of 0.1 Hz and 5.0 mS duration. The contraction of the tissue was recorded on polygraph using isometric transducer.
Then 100 nM of the test compound was added. Twenty minutes later, DPDPE was begun to be added cumulatively. The ratio of IC50 values in the presence and absence of the test compound, Ke value (the molar concentration of the test compound necessary for translating the dose-effect curve to the curve of twice dose) and pA2 value were determined. The pA2 value was determined by the method of Shild et al (Shild, H. O., Br. J. Pharmac. Chamotehr., 4, 277 (1949)). That is, the logarithm of the test compound (log[test compound]) was plotted along the abscissa and the logarithm of the value obtained by subtracting 1 from the ratio of IC50 values was plotted in the presence and absence of the test compound [log(dose ratio-1)] along the ordinate. The pA2 value was determined from the value on the abscissa when the value on the ordinate of the obtained line is 0.

[3] = tested on: delayed type hypersensitivity; test: Delayed type hypersensitivity suppression test using mice from which adrenal glands have been removed; assay type: in vivo, mouse; conditions: subcutaneous, totally 8 days
Text: The mechanism of immunosuppression of the compound of the present invention was examined using delayed type hypersensitivity suppression test using mice from which adrenal glands have been removed.
as §1, with “(1×10^7)” for “(1×10^7 )”, “footpad” for “hing leg”, “strain” for “line”
The adrenectomy was performed by cutting the back of each recipient mouse under anesthesia with ether before the sensitization and removing the adrenal gland. Sham operation was performed by cutting the back of each recipient mouse but not removing the adrenal gland.
The test compound was dissolved in 10% DMSO-water and was subcutaneously administered everyday from the day of sensitization to the day of induction of the reaction, totally 8 days. In the control group, 10% DMSO-water alone was administered in the same manner. The volume of administration was 10 ml/kg in both study groups and in the control groups.

[4] = tested on: delayed type hypersensitivity; test: Mouse Delayed Type Hypersensitivity Reaction Suppression Test-3 (administration into cerebral ventricles); assay type: in vivo
Text: as §1, with “(1×10^7)” for “(1×10^7 )”, “footpad” for “hing leg”, “strain” for “line”
The test compound was dissolved in water and 5×10^-8 mol/mouse was administered into cerebral ventricles. In the control group, water alone was administered similarly. The dose was 5 μl/mouse in both the study groups and the control group.

contact dermatitis = test: Mouse Contact Dermatitis Suppression Test (DNFB); assay type: in vivo; conditions: into cerebral ventricle 30 minutes before induction, BALB/c
Experimental: BALB/c mice (male, 13-15 weeks old) were used, and each group consisted of 4 mice. In mixed liquid of acetone: olive oil=4:[…] (DNFB) was dissolved. On Day 0 and Day 1, 0.1% DNFB (50μ) was sensitized to the clipped skin of the abdominal wall, so as to sensitize the mouse. On day 5, 0.15% DNFB (25 μl/ear) was challenged on closal side of each ear love of each mouse, so as to induce the reaction. The compound was administered into cerebral ventricle 30 minutes before the induction.
The contact dermatitis was detected in terms of the increase in the thicknesses of the ears. The thicknesses of the ears were measured before and 24 hours after the challenge by using a dial thickness gage. One ear was taken as n=1, and the increase in the thickness of the ear was used as an index for detecting the contact dermatitis. Contact Dermatitis=(thickness of the ear after challenge)-(thickness of the ear before challenge) [formula]
wherein E means the contact dermatitis of the group to which the compound was administered, and F means the contact dermatitis of the group to which the vehicle was administered.

brain cells = conditions: Kokai No. 3-218313; cited from earlier work
[5] = tested on: Cerebral cortex nerve cells; test: Brain cell-protecting action, MTT method; assay type: cell-based, rat; conditions: study group / control group, 570 nm, 10 μM, 3 days culture
Experimental: The brain cell-protecting action was examined by MTT [3-(4,5-dimethylthiazol-2-yl)-2,5-diphenyltetrazolium bromide] method. MTT yields a dark blue formazan compound by mitochondria in living cells. This compound was dissolved in isopropanol and absorbance at 570 nm was measured, thereby measuring the number of living cells.
Cerebral cortex nerve cells of fetal rats of 17 days old were placed in wells of a 96-well plate at a population density of 1×10^5 cells/cm^2. Then 10 μM of a test compound was added and the cells were cultured in 200 μl of mixed medium of D-MEM/F.12 (1:1) for 3 days (37° C., 5%CO2). In a control group, the medium alone was added Then […] of MTT solution in PBS (6mg/ml) was added and the mixture was allowed to react for 3 hours (37° C., 5% CO2). After removing the culture medium, 100 μl of isopropanol was added and the absorbance was measured.
The ratio of the absorbances of the study group and the control group was employed as an index of brain cell-protecting action.

| Structure (SMILES) | % Suppression [1] [%] | % Suppression [2] [%] | Ratio of IC50 Values (δ-opioid receptor) | Kb (δ-opioid receptor) [nM] | other results |
| --- | --- | --- | --- | --- | --- |
| CSc1ccc2c3c([nH]c2c1)[C@@H]1Oc2c(O)ccc4c2[C@@]12CCN(CC1CC1)[C@H](C4)[C@]2(O)C3 [Compound 43, 17-cyclopropylmethyl-6,7-didehydro-4,5α-epoxy-3,14β-dihydroxy-6'-methylthio-6,7-2',3'-indolomorphinan] | 27 | 26 | 168 | 0.6 |  |
| CCOC(=O)c1cccc2c3c([nH]c12)[C@@H]1Oc2c(O)ccc4c2[C@@]12CCN(CC1CC1)[C@H](C4)[C@]2(O)C3 [Compound 119, 17-cyclopropylmethyl-6,7-didehydro-4,5α-epoxy-3,14β-dihydroxy-7'-ethoxycarbonyl-6,7-2',3'indolomorphinan] | 31 | 12 | 635 | 0.16 | δ-antagonist activity relative to NTI (times that of NTI) (δ-opioid receptor): 1.3-1.6 times |
| O=[N+]([O-])c1cccc2[nH]c3c(c12)C[C@@]1(O)[C@H]2Cc4ccc(O)c5c4[C@@]1(CCN2CC1CC1)[C@H]3O5 [Compound 78, 17-cyclopropylmethyl-6,7-didehydro-4,5α-epoxy-3,14β-dihydroxy-4'-nitro-6,7-2',3'-indolomorphinan] |  | 36 | 148 | 7.25 |  |
| Oc1ccc2c3c1O[C@H]1c4[nH]c5c6c(ccc5c4C[C@@]4(O)[C@@H](C2)N(CC2CC2)CC[C@]314)CCCC6 [Compound 2, 17-cyclopropylmethyl-3,14β-dihydroxy-4,5α-epoxy-6,7-didehydromorphinano[6,7-b]cyclohexeno[g]indole] | 60 |  | 22.1 | 4.74 | % Suppression ([3]; Adrenectomy): 60%; % Suppression ([3]; Sham Operation): 60%; % Suppression ([4]; 5×10^-8 mol/mouse into cerebral ventricles, BALB/c): 83%; suppressive effect relative to NTI (in words) ([4]; into cerebral ventricles, vs NTI): far stronger than NTI; suppression of contact dermatitis (contact dermatitis): 44% |
| Oc1ccc2c3c1O[C@H]1c4[nH]c5c(c4C[C@@]4(O)[C@@H](C2)N(CC2CC2)CC[C@]314)C[C@@]1(O)[C@H]2Cc3ccc(O)c4c3[C@@]1(CCN2CC1CC1)[C@H]5O4 [nor-BNI, reference compound] |  |  |  |  | brain cell-protecting action (in words) (brain cells): has brain cell-protecting action; Ratio of Absorbances [5]: 7.60 |
| CSc1cccc2c3c([nH]c12)[C@@H]1Oc2c(O)ccc4c2[C@@]12CCN(CC1CC1)[C@H](C4)[C@]2(O)C3 [Compound 121, 17-cyclopropylmethyl-6,7-didehydro-4,5α-epoxy-3,14β-dihydroxy-7'-methylthio-6,7-2',3'-indolomorphinan] |  | 20 | 33.6 | 3.07 |  |
| CCCOC(=O)c1ccc2c3c([nH]c2c1)[C@@H]1Oc2c(O)ccc4c2[C@@]12CCN(CC1CC1)[C@H](C4)[C@]2(O)C3 [Compound 393, 17-cyclopropylmethyl-6,7-didehydro-4,5α-epoxy-3,14β-dihydroxy-6'-propoxycarbonyl-6,7-2',3'-indolomorphinan] | 33 |  | 12.3 | 8.85 |  |
| N#Cc1ccc2c3c([nH]c2c1)[C@@H]1Oc2c(O)ccc4c2[C@@]12CCN(CC1CC1)[C@H](C4)[C@]2(O)C3 [Compound 53, 17-cyclopropylmethyl-6,7-didehydro-4,5α-epoxy-3,14β-dihydroxy-6'-cyano-6,7-2',3'-indolomorphinan] |  | 18 | 62.3 | 1.63 |  |
| O=[N+]([O-])c1cccc2c3c([nH]c12)[C@@H]1Oc2c(O)ccc4c2[C@@]12CCN(CC1CC1)[C@H](C4)[C@]2(O)C3 [Compound 136, 17-cyclopropylmethyl-6,7-didehydro-4,5α-epoxy-3,14β-dihydroxy-7'-nitro-6,7-2',3'-indolomorphinan] |  | 18 | 192 | 0.52 |  |
